# Laboratory results taken from patent US20030044909A1, “Melatonin-receptor expression cells and thier uses” (JCR PHARMACEUTICALS Co., Ltd., priority 1997, published 2003).
# Molecular target: mel-1a receptor expressed in CHO cell (Homo sapiens, UniProt P48039)
# Conditions: after 2 min stimulation; mel-1a/CHO cells
# Description: mel-1a/CHO cells were cultivated in advance in the DMEM medium containing 800 μg/ml G418 and 10% FBS, and mel-1a/CHO cells in the logarithmic growth phase were washed with PBS, treated with trypsin and diluted with the same medium to a concentration of 2.5×10^5/ml. 1 ml of cell suspension was seeded in each cell cup for cytosensor, and the cell cups were filled on the outside with 2 ml of the medium and then left on standing overnight udner th conditions of 5% CO2/37° C.
# While paying attention not to cause air bubbles to mingle, a spacer was disposed on the bottom of each cell cup with use of sterile tweezers on the following day. When air bubbles were below the spacer, they were to be removed with a pipette. A capsule insert was placed in each cup, while preventing air bubbles from mingling, and the medium in the 1 ml portion was added from the top to thereby bury the cup in the medium, whereby it was to be ascertained that no air bubble had been drained or mingled into the spacer and insert.
# Powdered low buffer RPM1 1640 medium (MDC) was dissolved in 1 liter of distilled water for tissue culture (Cosmo Bio), and the solution was adjusted to pH 7.4 and then suction-filtered through a 0.45 μm filter.
# The Cyto software package of a personal computer was started up. A measuring medium was set in a ctyosensor, and fluid feeding system was switched for the measuring medium. The fluid inside the sensor chamber was aspirated out, and the measuring medium was placed in the 1.5 ml portion in to each cell, where a capsule cell prepared in advance was disposed while preventing air bubbles from mingling. The sensor chamber was connected to a cytosensor without causing air bubbles to mingle.
# Each of the prepared samples was set on the cytosensor under the conditions where the metabolic rate was stabilized. Measurement with the cytosensor was performed by switching the fluid feeding from the measuring medium to the sample solution to stimulate the cells, then putting the fluid-feeding back to the measuring medium and measuring a change caused in metabolic rate of the cells, whereby stimulation with the sample was effected for 2 min. and subsequently the measuring medium continued to be fluid-fed until the metabolic rate was returned to the level determined prior to stimulation with the sample. […] Accordingly, stimulation with the sample was given at a regular interval of 40 min.
# The cytosensor was designed to detect the release outside the cell of hydrogen ions, which is understood to reflect the metabolic activity of the cell, as a rate of change in extracellular hydrogen ion concentration. Upon binding of a ligand to the receptor expressed on the cell surface, intracellular signal transduction takes place, resulting in increased cellular metabolic activity to thereby release hydrogen ions outside the cell.
# mel-1a receptor expressed in CHO cell, sequence (P48039 whole entry): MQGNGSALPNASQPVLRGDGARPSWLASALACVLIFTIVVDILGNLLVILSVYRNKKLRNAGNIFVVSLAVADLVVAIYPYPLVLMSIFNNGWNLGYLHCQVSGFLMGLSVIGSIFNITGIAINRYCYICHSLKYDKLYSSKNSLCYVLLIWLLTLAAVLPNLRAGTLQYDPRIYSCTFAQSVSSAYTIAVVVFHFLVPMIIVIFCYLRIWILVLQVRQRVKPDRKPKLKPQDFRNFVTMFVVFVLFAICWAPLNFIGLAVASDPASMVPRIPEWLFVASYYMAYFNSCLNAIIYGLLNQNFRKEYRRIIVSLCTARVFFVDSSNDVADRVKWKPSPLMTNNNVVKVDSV
row,SMILES,time for the metabolic activity to decline to the level prior to stimulation
1,COc1ccc2[nH]cc(CCNC(C)=O)c2c1 [melatonin],about 40 min

# Same assay, conditions: mel-1a/CHO cells, cytosensor (FIG. 11)
row,SMILES,"increase in metabolic rate via the mel-1a receptor (responsiveness, specificity)"
1,COc1ccc2[nH]cc(CCN)c2c1 [5-methoxytryptamine],not to bring about an increase in metabolic rate
2,COc1ccc2[nH]cc(C[C@H](N)C(=O)O)c2c1 [5-methoxytryptophan],not to bring about an increase in metabolic rate
3,CC(=O)NCCc1c[nH]c2ccc(O)cc12 [N-acetylserotonin],not to bring about an increase in metabolic rate
4,COc1ccc2[nH]cc(CCNC(C)=O)c2c1 [melatonin],responds specifically to melatonin alone
5,NCCc1c[nH]c2ccc(O)cc12 [serotonin],not to bring about an increase in metabolic rate
6,N[C@@H](Cc1c[nH]c2ccccc12)C(=O)O [tryptophan],not to bring about an increase in metabolic rate
